Data published in paper PMC3248976 (Bioorganic & medicinal chemistry letters, 2011).

Legend:
Assay type in all cases: cell-based
[1] = molecular target: T1, S1P4-R (human Endothelial Differentiation Gene 6; EDG6) (Homo sapiens, UniProt O95977); assay: Tango S1P4-BLA U2OS beta-arrestin/beta-lactamase reporter agonist assay; conditions: for fold decrease in potency compared to the hit 2 / fold more potent than the hit 2: S1P4-R EC50 ratio vs hit 2; for S1P4-R agonist activity in words: concentrations up to 25 μM; for fold less potent than 22p: S1P4-R EC50 ratio vs 22p
T1 sequence (O95977 1-384): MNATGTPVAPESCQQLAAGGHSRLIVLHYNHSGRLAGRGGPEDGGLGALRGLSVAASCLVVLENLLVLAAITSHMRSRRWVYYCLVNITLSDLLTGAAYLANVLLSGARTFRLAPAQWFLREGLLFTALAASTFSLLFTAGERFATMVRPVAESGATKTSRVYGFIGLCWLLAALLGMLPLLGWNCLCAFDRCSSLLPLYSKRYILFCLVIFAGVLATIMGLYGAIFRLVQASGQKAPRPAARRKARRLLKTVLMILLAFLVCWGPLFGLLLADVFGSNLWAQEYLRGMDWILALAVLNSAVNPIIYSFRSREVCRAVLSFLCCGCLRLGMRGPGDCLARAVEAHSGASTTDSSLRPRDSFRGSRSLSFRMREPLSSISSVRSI

S1P3-R = S1P3-R (Homo sapiens, UniProt Q99500); assay: S1P1–3,5-Rs selectivity counter screen, S1P3-R; conditions: mean of n = 3; NA = not active at concentrations up to 25 μM
S1P1-R = S1P1-R (Homo sapiens, UniProt P21453); assay: S1P1–3,5-Rs selectivity counter screen, S1P1-R; conditions: mean of n = 3; NA = not active at concentrations up to 25 μM
S1P5-R = S1P5-R (Homo sapiens, UniProt Q9H228); assay: S1P1–3,5-Rs selectivity counter screen, S1P5-R; conditions: mean of n = 3; NA = not active at concentrations up to 25 μM
S1P2-R = S1P2-R (Homo sapiens, UniProt O95136); assay: S1P1–3,5-Rs selectivity counter screen, S1P2-R; conditions: mean of n = 3; NA = not active at concentrations up to 25 μM
S1P2-R, sequence (O95136 whole entry): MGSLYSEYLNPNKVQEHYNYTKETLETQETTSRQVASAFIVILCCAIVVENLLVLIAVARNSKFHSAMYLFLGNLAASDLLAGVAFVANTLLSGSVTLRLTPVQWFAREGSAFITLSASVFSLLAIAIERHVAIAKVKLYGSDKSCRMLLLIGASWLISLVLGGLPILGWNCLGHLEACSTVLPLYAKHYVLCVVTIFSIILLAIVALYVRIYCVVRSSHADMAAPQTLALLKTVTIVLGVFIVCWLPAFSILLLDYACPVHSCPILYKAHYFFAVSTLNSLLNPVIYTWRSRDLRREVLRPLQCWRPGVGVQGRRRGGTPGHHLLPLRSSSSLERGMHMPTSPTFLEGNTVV

S1P3-R, sequence (Q99500 whole entry): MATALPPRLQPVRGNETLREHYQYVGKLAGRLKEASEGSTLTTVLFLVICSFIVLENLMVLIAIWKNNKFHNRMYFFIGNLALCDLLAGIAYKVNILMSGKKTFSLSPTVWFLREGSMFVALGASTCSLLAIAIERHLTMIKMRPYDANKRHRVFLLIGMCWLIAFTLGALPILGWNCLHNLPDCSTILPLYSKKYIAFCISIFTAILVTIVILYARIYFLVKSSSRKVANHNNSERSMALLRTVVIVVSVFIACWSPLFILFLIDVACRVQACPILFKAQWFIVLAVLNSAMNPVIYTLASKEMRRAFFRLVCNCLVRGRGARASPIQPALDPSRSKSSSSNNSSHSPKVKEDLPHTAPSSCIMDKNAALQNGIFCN
S1P1-R, sequence (P21453 whole entry): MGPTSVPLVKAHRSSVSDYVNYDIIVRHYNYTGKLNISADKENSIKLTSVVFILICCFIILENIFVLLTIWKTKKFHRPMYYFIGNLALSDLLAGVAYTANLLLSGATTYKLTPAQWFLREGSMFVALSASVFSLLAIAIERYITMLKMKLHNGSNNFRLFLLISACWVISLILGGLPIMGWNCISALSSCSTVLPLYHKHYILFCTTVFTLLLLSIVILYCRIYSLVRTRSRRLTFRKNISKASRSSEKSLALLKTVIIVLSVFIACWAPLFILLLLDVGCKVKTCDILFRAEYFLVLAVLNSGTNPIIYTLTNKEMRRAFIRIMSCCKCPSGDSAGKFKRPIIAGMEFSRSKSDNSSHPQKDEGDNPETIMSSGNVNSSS
S1P5-R, sequence (Q9H228 whole entry): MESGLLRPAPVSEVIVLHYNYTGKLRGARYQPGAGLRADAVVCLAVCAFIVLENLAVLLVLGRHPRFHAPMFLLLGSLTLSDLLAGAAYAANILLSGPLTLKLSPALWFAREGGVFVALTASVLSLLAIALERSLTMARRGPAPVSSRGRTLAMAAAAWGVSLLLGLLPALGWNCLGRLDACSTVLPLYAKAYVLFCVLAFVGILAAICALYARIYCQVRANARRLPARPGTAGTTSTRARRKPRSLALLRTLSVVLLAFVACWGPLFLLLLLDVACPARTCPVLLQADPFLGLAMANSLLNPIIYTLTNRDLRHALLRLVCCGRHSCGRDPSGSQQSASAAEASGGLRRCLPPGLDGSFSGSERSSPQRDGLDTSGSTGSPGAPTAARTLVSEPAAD

## O=[N+]([O-])c1nc(Cl)ccc1OCCOc1ccc(Cl)cc1Cl [22d]
[1]
  fold decrease in potency compared to the hit 2: 2 fold

## Cc1ccc(OCCOc2ccc(Cl)cc2Cl)c([N+](=O)[O-])c1 [22c]
[1]
  fold decrease in potency compared to the hit 2: 8 fold

## O=[N+]([O-])c1ncccc1OCCOc1ccc(Cl)cc1Cl [22a]
[1]
  fold decrease in potency compared to the hit 2: 18 fold

## Cc1ccc(OCCOc2ccc(Cl)cc2Cl)c([N+](=O)[O-])n1 [compound 2, 3-(2-(2,4-dichlorophenoxy)ethoxy)-6-methyl-2-nitropyridine]
S1P3-R
  EC50 nM, S1P3-R: no agonistic activity
S1P1-R
  EC50 nM, S1P1-R: no agonistic activity
S1P5-R
  EC50 nM, S1P5-R: no agonistic activity
S1P2-R
  EC50 nM, S1P2-R: no agonistic activity

## Cc1ccc(OC(=O)COc2ccc(Cl)cc2Cl)c([N+](=O)[O-])n1 [13d]
[1]
  S1P4-R agonist activity in words: complete loss of activity

## O=Cc1ccc(OCCOc2ccc(Cl)cc2Cl)c(I)n1 [22u]
[1]
  fold less potent than 22p: 38 fold

## Cc1ccc(OCCCc2ccc(Cl)cc2Cl)c([N+](=O)[O-])n1 [13b]
[1]
  fold decrease in potency compared to the hit 2: 5–6 fold

## Cc1ccc(OCCOc2ccc(Br)cc2C(F)(F)F)c([N+](=O)[O-])n1 [8r]
[1]; S1P4-R EC50 ratio vs 2-chloro analog 8h
  fold less potent than 8h: 3 fold

## Fc1ccc(OCCOc2ccc(Cl)cc2Cl)c(Br)n1 [22o]
[1]; S1P4-R EC50 ratio vs 22l
  fold less potent than 22l: 4 fold
[1]; S1P4-R EC50 ratio vs 22m
  fold more potent than 22m: 6 fold

## FCc1ccc(OCCOc2ccc(Cl)cc2Cl)c(Cl)n1 [22aa]
[1]
  fold more potent than the hit 2: 3.5 fold

## Cc1ccc(OCCOc2ccccc2Cl)c([N+](=O)[O-])n1 [8a]
[1]
  S1P4-R agonist activity in words: complete loss of activity

## Cc1ccc(OCCOc2ccc(Cl)cc2)c([N+](=O)[O-])n1 [8b]
[1]
  S1P4-R agonist activity in words: complete loss of activity

## Cc1ccc(OCCOc2c(Cl)cc(Cl)cc2Cl)c([N+](=O)[O-])n1 [8s]
[1]
  fold decrease in potency compared to the hit 2: 3 fold

## OCc1ccc(OCCOc2ccc(Cl)cc2Cl)c(I)n1 [22t]
[1]
  fold less potent than 22p: 4 fold

## Cc1ccc(OCCOc2ccccc2)c([N+](=O)[O-])n1 [8f]
[1]
  S1P4-R agonist activity in words: complete loss of activity

## OCc1ccc(OCCOc2ccc(Cl)cc2Cl)c(Cl)n1 [22v]
[1]; S1P4-R EC50 ratio vs 22t
  fold less active than the 2-iodine counterpart 22t: 5 fold

## Cc1ccc(OCCOc2ccc(Cl)cc2Cl)c(Br)n1 [22l]
[1]
  fold more potent than the hit 2: 3 fold

## Clc1ccc(OCCOc2ccc(Br)nc2Br)c(Cl)c1 [22n]
[1]
  fold more potent than the hit 2: 3 fold

## Cc1ccc(OCCCOc2ccc(Cl)cc2Cl)c([N+](=O)[O-])n1 [13a]
[1]
  S1P4-R agonist activity in words: complete loss of activity

## Cc1ccc(OCCOc2cc(Cl)cc([N+](=O)[O-])c2)c([N+](=O)[O-])n1 [8q]
[1]
  fold decrease in potency compared to the hit 2: 22 fold
